# Source: patent US9688760B2, “Anti-leukocyte adhesion for the mitigation of potential adverse events caused by CD3-specific binding domains” (AMGEN RESEARCH (MUNICH) GMBH, priority 2013, dated 2017)
# What was measured:
# [1] = tested on: ICAM-1, P-selectin and VCAM-1 on HBMEC; experiment: Immunofluorescence staining of HBMEC after T cell-rolling; type: cell-based, human
# Method: After rolling and adhesion of T cells on HBMEC or HUVEC under flow conditions, endothelial cells were fixed using 150 μl of 4% paraformaldehyde solution (#P-6148, Sigma-Aldrich) for 30 min at 4° C. μ-slides were rinsed with 150 μl of D-PBS and subjected to immunofluorescence staining. HBMEC were first blocked with 150 μl of avidin blocking reagent (#PHA-70871, reagent 1, Dianova) for 10 min at room temperature, washed with 150 μl of D-PBS followed by incubation with 150 μl of biotin blocking reagent (#PHA-70871, reagent 2, Dianova). All following staining procedures were performed in 150 μl of D-PBS with 5% FBS at room temperature in the dark, and washing steps were done in 150 μl of D-PBS. μ-slides were incubated with 5 μg/ml polyclonal rabbit anti-human VCAM-1 (#106777, abcam) for 1 h. After washing, 20 μg/ml goat anti-rabbit IgG-DyLight350 was added for 1 h followed by washing and incubation with 15 μg/ml mouse anti-human P-selectin IgG1 (#BBA30, R&D Systems) for 2 h. After washing, goat anti-mouse IgG-Alexa488 (1:100) (#A10680, Invitrogen) was added for 1 h. […] VCAM-1 staining was monitored with a CFL EPI-FL Filter Block UV-2A (#MBE41200, Nikon), P-selectin staining with a CFL EPI-FL Filter Block GFP-B (#MBE44740, Nikon), and ICAM-1 staining with an EPI-FL Filter Block Cy3 (#MXU96213, Nikon). […]
# [2] = tested on: recombinant human ICAM-1/VCAM-1; experiment: Flow chamber: Jurkat E6.1 T cell-rolling on recombinant ICAM-1/VCAM-1, semi short-term conditions; type: cell-based; details: Jurkat E6.1 T cells, +AMG 103 10 ng/ml, t=45 min; coated at 12.5 and 10 μg/ml; control −AMG 103 640±91
# Method: Recombinant proteins (rhICAM-1 #ADP4-050, rhVCAM-1 #ADP5-050 or rhP-selectin #ADP3-050, R&D Systems) were dissolved in ddH2O according to the manufacturer's instructions. Prior to rolling experiments recombinant proteins were diluted in Dulbecco's PBS with Ca^2+ and Mg^2+ (#L1815, Biochrom) and coated onto a μ-slide VI^0.4 Luer ibiTreat (#80606, ibidi) over night at 4° C. Before usage slides were washed three times with Dulbecco's PBS and blocked where indicated with 20% FBS (#10270, Gibco) in PBS for 2 h at room temperature. Blocking solution was replaced by RPMI 1640 medium (#FG1215, Biochrom) without supplements. […]
# For rolling experiments using Jurkat E6.1 T cells, these cells were resuspended in RPMI 1640 medium (#FG1215, Biochrom) without supplements to a final concentration of 1.5-3×10^5 cells/ml. […] Image sequences of 45 sec duration were recorded at t=40 min, 45 min, and 50 min as described in Example 2 (p. 50, 18-23).
# Experiments under defined hydrodynamic flow conditions were performed by using either freshly isolated human T cells or Jurkat E6.1 T cells and μ-slide VI^0.4 Luer ibiTreat (#80606, ibidi) coated with different recombinant proteins as described above. […] T cell-interactions with recombinant proteins were recorded as described above and data was analyzed as described in detail in Example 2 (p. 50, 23-30). […]
# recombinant human ICAM-1 = experiment: Flow chamber: T cell-rolling on recombinant ICAM-1, semi short-term conditions; type: cell-based; details: freshly isolated T cells, +AMG 103 10 ng/ml, t=45 min; coated at 12.5 μg/ml, with blocking; control −AMG 103 383±144
# Method: Recombinant proteins (rhICAM-1 #ADP4-050, rhVCAM-1 #ADP5-050 or rhP-selectin #ADP3-050, R&D Systems) were dissolved in ddH2O according to the manufacturer's instructions. Prior to rolling experiments recombinant proteins were diluted in Dulbecco's PBS with Ca^2+ and Mg^2+ (#L1815, Biochrom) and coated onto a μ-slide VI^0.4 Luer ibiTreat (#80606, ibidi) over night at 4° C. Before usage slides were washed three times with Dulbecco's PBS and blocked where indicated with 20% FBS (#10270, Gibco) in PBS for 2 h at room temperature. Blocking solution was replaced by RPMI 1640 medium (#FG1215, Biochrom) without supplements.
# Isolation and characterization of human peripheral blood mononuclear cells (PBMC) and T cells from blood were performed as described in Example 2 (p. 48, 1-31).
# For rolling experiments using freshly isolated T cells, these cells were resuspended in RPMI 1640 medium (#FG1215, Biochrom) without supplements to a final concentration of 1×10^6 cells/ml at the start of the experiment (t=0 min; addition of 10 ng/ml Blinatumomab (AMG 103)) and incubated for 35 min at 37° C. and 5% CO2. Cells were then filled in a perfusion set “white” (#10963, ibidi) which was connected to both a fluidic unit and the μ-slide and image sequences of 45 sec duration were recorded at t=40 min, 45 min, and 50 min as described in Example 2 (p. 50, 18-23). […]
substance,measurement,setting,value
Blinatumomab: recombinant CD19×CD3 bispecific scFv antibody consisting of four immunoglobulin variable domains assembled into a single polypeptide chain,surface expression of adhesion molecules on HBMEC,"[1]; after T cell-rolling with Blinatumomab-stimulated T cells, 120 min","increased surface expression of adhesion molecules ICAM-1, P-selectin and VCAM-1"
same,cell surface expression of P-selectin on HBMEC,"[1]; histamine-stimulated HBMEC, Blinatumomab added, no PPS",increased
same,mean T cell-rolling velocity±SD,[2],518±98 μm/sec
same,mean T cell-rolling velocity±SD,recombinant human ICAM-1,314±79 μm/sec
